Measured values taken from patent US5591741A, “Fungicidal spiroheterocyclic derivatives” (American Cyanamid Company, priority 1993, dated 1997).

Experiments:
[1] = test system: Plasmopara viticola; assay: Antisporulant activity against vine downy mildew (PVA); type: in vivo; conditions: vine leaves, antisporulant foliar spray, 600 ppm, 750 l/ha
How it was run: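 Cabernet Sauvignon vines (~8 cm) inoculated on lower leaf surfaces with 5×10^4 zoosporangia/ml, held 24 h at 21° C high humidity then 24 h glasshouse. Infected leaves sprayed underside with 600 ppm compound in 1:1 water/acetone, 0.04% Tween 20, 750 l/ha; 96 h glasshouse, 24 h humidity. Sporulating leaf area rated versus control.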

[2] = test system: Alternaria solani; assay: Activity against tomato early blight (AS); type: in vivo; conditions: Table VI; tomato seedlings, contact prophylactic foliar spray, 4 days
How it was run: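 Plants were challenged with A. solani conidia (10^4 spores/ml) 24 h after a protective foliar spray of compound in 50:50 acetone/water plus 0.04% Tween 20. Held humid at 21° C for 4 days, then percent leaf area with lesions was scored as a rating relative to controls.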

[3] = test system: Phytophthora infestans; type: in vivo; conditions: tomato, direct protectant foliar spray
[4] = test system: Pyricularia oryzae; type: in vivo; conditions: rice seedlings, direct therapeutic foliar spray, 600 ppm, 4-5 days
[5] = test system: Erysiphe graminis f.sp. hordei; assay: Direct protectant activity against barley powdery mildew (EGP); type: in vivo; conditions: direct protectant foliar spray, 8 days
How it was run: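 Rating reflects percentage of leaf area with sporulation compared with untreated or diluent-sprayed controls. Protectant spray was applied to single-leaf barley (cv Golden Promise) 24 h before conidia inoculation. Plants were kept at 18 °C and 40% RH throughout, with 8 days of disease development.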

[6] = test system: Rhizoctonia solani; assay: Activity against Rhizoctonia in-vitro (RSI); type: cell-based; conditions: 10 ppm, 10 days, 20° C., mycelial growth
How it was run: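 Compound at a final 10 ppm (acetone vehicle) in half-strength PDB, inoculated with 5×10^4 fragments/ml of shaken-culture R. solani mycelium. After incubation at 20° C for 10 days, growth scored as a rating versus untreated or diluent-treated controls.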

[7] = test system: Venturia inaequalis; assay: Activity against apple scab in-vitro (VII); type: cell-based; conditions: 10 ppm, 10 days, 20° C., mycelial growth
How it was run: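 V. inaequalis propagules (5×10^4/ml, malt agar-grown) were exposed in half-strength PDB to 10 ppm final test compound delivered in acetone. Growth was scored after incubation for 10 days at 20° C, as a rating relative to untreated or diluent-sprayed controls.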

[8] = test system: Leptosphaeria nodorum; assay: Activity against wheat leafspot (LN); type: in vivo; conditions: direct therapeutic foliar spray, 600 ppm, 6-8 days
How it was run: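 Therapeutic foliar spray: compound at 600 ppm applied to single-leaf wheat (cv Norman) 24 h after inoculation with 1.5×10^6 conidia/ml. Disease control scored after 6-8 days at 22° C and 70% humidity as lesions per leaf versus untreated or diluent-sprayed controls.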

[9] = test system: Erysiphe graminis f.sp. hordei; assay: Activity against barley powdery mildew, direct therapeutic (EGT); type: in vivo; conditions: direct therapeutic foliar spray, 600 ppm, up to 7 days
How it was run: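 A curative spray at 600 ppm was applied to single-leaf Golden Promise barley inoculated with powdery mildew conidia the previous day. After up to 7 days at 18 °C and 40% humidity, disease control was rated from percent leaf area sporulating relative to untreated or diluent-sprayed controls.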

[10] = test system: Pseudocercosporella herpotrichoides; assay: Activity against wheat eyespot in-vitro (PHI); type: cell-based; conditions: 10 ppm, 10 days, 20° C., mycelial growth
How it was run: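 Mycelial growth was scored after 10 days at 20 °C against untreated or diluent controls. The broth was half-strength potato dextrose, holding 10 ppm test compound (from acetone) and 5×10^4 fragments/ml of the eyespot fungus.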

[11] = test system: Botrytis cinerea; assay: Direct protectant activity against broad bean grey mould (BCB); type: in vivo; conditions: direct protectant foliar spray, 600 ppm, 4 days
How it was run: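 Protectant foliar test: lesion coverage assessed 4 days after inoculation and rated relative to untreated or diluent-sprayed plants. Compound applied at 600 ppm to cv The Sutton leaves 24 h before 10^6 conidia/ml suspension; incubation at 22 °C in high humidity.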

Row | SMILES | disease control rating PVA [1] | disease control rating AS [2] | disease control rating PIP [3] | disease control rating PO [4] | disease control rating EGP [5] | disease control rating RSI [6] | disease control rating VII [7] | disease control rating LN [8] | disease control rating EGT [9] | disease control rating PHI [10] | disease control rating BCB [11]
1 | CC(C)(C)C1CCC2(CC1)CC(N)CO2 (centres unmarked) [Compound 97, 3-amino-8-t-butyl-1-oxaspiro(4,5)-decane] | 0 (less than 50% disease control) | 0 (less than 50% disease control) | 2 (greater than 80% disease control) | 0 (less than 50% disease control) | 2 (greater than 80% disease control) | 0 (less than 50% disease control) | 0 (less than 50% disease control) | 0 (less than 50% disease control) | 2 (greater than 80% disease control) | 0 (less than 50% disease control) | 0 (less than 50% disease control)
2 | CCCCCCNC1COC2(CCC(C(C)(C)C)CC2)C1 (centres unmarked) [Compound 40] | 0 (less than 50% disease control) | 2 (greater than 80% disease control) | 0 (less than 50% disease control) | 0 (less than 50% disease control) | 2 (greater than 80% disease control) | 0 (less than 50% disease control) | 0 (less than 50% disease control) | 0 (less than 50% disease control) | 2 (greater than 80% disease control) | 1 (about 50-80% disease control) | 0 (less than 50% disease control)
3 | CCCCCCN(C)C1COC2(CCC(C(C)(C)C)CC2)C1 (centres unmarked) [Compound 14] | 0 (less than 50% disease control) | 0 (less than 50% disease control) | 0 (less than 50% disease control) | 0 (less than 50% disease control) | 2 (greater than 80% disease control) | 1 (about 50-80% disease control) | 2 (greater than 80% disease control) | 1 (about 50-80% disease control) | 2 (greater than 80% disease control) | 2 (greater than 80% disease control) | 0 (less than 50% disease control)
4 | CCN(CCC1CCCCC1)C1COC2(CCC(C(C)(C)C)CC2)C1 (centres unmarked) [Compound 118] | 2 (greater than 80% disease control) | 0 (less than 50% disease control) | 0 (less than 50% disease control) | 0 (less than 50% disease control) | 2 (greater than 80% disease control) | 1 (about 50-80% disease control) | 1 (about 50-80% disease control) | 0 (less than 50% disease control) | 2 (greater than 80% disease control) | 1 (about 50-80% disease control) | 0 (less than 50% disease control)
5 | CCC(C)CC(C)NC1COC2(CCC(C(C)(C)C)CC2)C1 (centres unmarked) [Compound 112] | 0 (less than 50% disease control) | 0 (less than 50% disease control) | 2 (greater than 80% disease control) | 0 (less than 50% disease control) | 2 (greater than 80% disease control) | 1 (about 50-80% disease control) | 1 (about 50-80% disease control) | 0 (less than 50% disease control) | 2 (greater than 80% disease control) | 1 (about 50-80% disease control) | 0 (less than 50% disease control)
6 | CCN(CC1(C)CCCCC1)C1COC2(CCC(C(C)(C)C)CC2)C1 (centres unmarked) [Compound 126] | 0 (less than 50% disease control) | 0 (less than 50% disease control) | 0 (less than 50% disease control) | 0 (less than 50% disease control) | 2 (greater than 80% disease control) | 0 (less than 50% disease control) | 1 (about 50-80% disease control) | 0 (less than 50% disease control) | 2 (greater than 80% disease control) | 0 (less than 50% disease control) | 0 (less than 50% disease control)
7 | CCCCCN(CCC)C1COC2(CCC(C(C)(C)C)CC2)C1 (centres unmarked) [Compound 73] | 0 (less than 50% disease control) | 0 (less than 50% disease control) | 0 (less than 50% disease control) | 0 (less than 50% disease control) | 2 (greater than 80% disease control) | 0 (less than 50% disease control) | 0 (less than 50% disease control) | 0 (less than 50% disease control) | 2 (greater than 80% disease control) | 0 (less than 50% disease control) | 1 (about 50-80% disease control)
8 | CCCCCCCCCCCCCCCCNC1COC2(CCC(C(C)(C)C)CC2)C1 (centres unmarked) [Compound 45] | 0 (less than 50% disease control) | 0 (less than 50% disease control) | 0 (less than 50% disease control) | 0 (less than 50% disease control) | 2 (greater than 80% disease control) | 0 (less than 50% disease control) | 0 (less than 50% disease control) | 0 (less than 50% disease control) | 2 (greater than 80% disease control) | 0 (less than 50% disease control) | 0 (less than 50% disease control)
9 | CCC(CC)NC1COC2(CCC(C(C)(C)C)CC2)C1 (centres unmarked) [Compound 83] | 0 (less than 50% disease control) | 0 (less than 50% disease control) | 0 (less than 50% disease control) | 0 (less than 50% disease control) | 2 (greater than 80% disease control) | 0 (less than 50% disease control) | 0 (less than 50% disease control) | 0 (less than 50% disease control) | 2 (greater than 80% disease control) | 0 (less than 50% disease control) | 1 (about 50-80% disease control)
10 | CCCCCCNC1COC2(CCC(C(C)(C)C)CC2)C1 (centres unmarked) [Compound 27] | 0 (less than 50% disease control) | 0 (less than 50% disease control) | 0 (less than 50% disease control) | 0 (less than 50% disease control) | 2 (greater than 80% disease control) | 0 (less than 50% disease control) | 1 (about 50-80% disease control) | 0 (less than 50% disease control) | 2 (greater than 80% disease control) | 1 (about 50-80% disease control) | 0 (less than 50% disease control)
